Counter-ions that a name gives are not always drawn.
Legend:
Assay type in all cases: in vivo
[1] = tested on: Agropyron; assay: Post-emergence test/greenhouse; settings: 60 g ai./ha, greenhouse, after three weeks
Procedure: (§1) Post-emergence Test/greenhouse Solvent: 5 parts by weight of acetone Emulsifier: 1 part by weight of alkylaryl polyglycol ether To produce a suitable preparation of active compound, 1 part by weight of active compound is mixed with the stated amount of solvent, the stated amount of emulsifier is added and the concentrate is diluted with water to the desired concentration. Test plants which have a height of 5-15 cm are sprayed with the preparation of active compound such that the particular amounts of active compound desired are applied per unit area. The concentration of the spray liquor is chosen so that the particular amounts of active compound desired are applied in 500 l of water/ha. After three weeks, the degree of damage to the plants is assessed in % damage in comparison to the development of the untreated control. The figures denote: 0%=no effect (like untreated control) 100% total destruction

[2] = tested on: Alopecurus; assay: Post-emergence test/greenhouse; settings: 60 g ai./ha, greenhouse, after three weeks
Procedure: as §1

[3] = tested on: Avena; assay: Post-emergence test/greenhouse; settings: 60 g ai./ha, greenhouse, after three weeks
Procedure: as §1

[4] = tested on: Bromus; assay: Post-emergence test/greenhouse; settings: 60 g ai./ha, greenhouse, after three weeks
Procedure: as §1

[5] = tested on: Lolium; assay: Post-emergence test/greenhouse; settings: 60 g ai./ha, greenhouse, after three weeks
Procedure: as §1

[6] = tested on: Wheat; assay: Post-emergence test/greenhouse; settings: greenhouse
Procedure: as §1

[7] = tested on: Agropyron repens; assay: Post emergence tests/outdoors (Example C, Germany and France); settings: 42 g of a.i./ha to 45 g of a.i./ha, post-emergence (spring), outdoors, winter wheat, 70 WP or 70 WG, 83 tests
Procedure: (§2) Post Emergence Tests/outdoors Under outdoor conditions, the sodium salt of the compound of the formula (I) was tested in winter wheat in Germany and France against economically important weeds. The small-plot experiments were carried out on cultivated land under agricultural use, with cultivation and climate conditions which can be considered to be representative for the period of the trial. Areas with particularly extensive weed growth were chosen by way of preference. The active compound was applied by the post-emergence method (spring) across the area by the spray method, with an average droplet size. To produce a useful preparation of active compound, the active compound was formulated as 70 WP or 70 WG (70% w/w water-dispersible powder or granules) and applied with customary amounts of water. To assess the crop compatibility, from 1 to 8 weeks after the treatment, plant growth inhibitions or […] of the leaf area were assessed in % damage in comparison to the development of the untreated control. At different intervals after the treatment, the herbicidal activity was assessed as % reduction in comparison to the untreated control, based on the weed development. The figures denote: 0%=no damage of the crops or no herbicidal effect, 100%=total destruction of the crops or the weeds.

[8] = tested on: Apera spica-venti; assay: as above; settings: 42 g of a.i./ha to 45 g of a.i./ha, post-emergence (spring), outdoors, winter wheat, 70 WP or 70 WG, 87 tests
Procedure: as §2

[9] = tested on: Poa annua; assay: as above; settings: 42 g of a.i./ha to 45 g of a.i./ha, post-emergence (spring), outdoors, winter wheat, 70 WP or 70 WG, 5 tests
Procedure: as §2

[10] = tested on: Sinapis arvensis; assay: as above; settings: 42 g of a.i./ha to 45 g of a.i./ha, post-emergence (spring), outdoors, winter wheat, 70 WP or 70 WG, 4 tests
Procedure: as §2

[11] = tested on: Phalaris paradoxa; assay: Post-emergence test/outdoors (Example E, California); settings: 42 g a.i./ha to 45 g a.i./ha, + SAS, outdoors, irrigation wheat growing area, 8 tests

SMILES: CCCOc1nn(C(=O)NS(=O)(=O)c2ccccc2C(=O)OC)c(=O)n1C [(I)-Na-salt, 2-(2-methoxycarbonyl-phenylsulphonylaminocarbonyl)-4-methyl-5-propoxy-2,4-dihydro-3H-1,2,4-triazol-3-one]
- degree of damage to the plants (% damage in comparison to the untreated control) [1]: 100%
- degree of damage to the plants (% damage in comparison to the untreated control) [2]: 90%
- degree of damage to the plants (% damage in comparison to the untreated control) [3]: 80%
- degree of damage to the plants (% damage in comparison to the untreated control) [4]: 95%
- degree of damage to the plants (% damage in comparison to the untreated control) [5]: 80%
- degree of damage to the plants (% damage in comparison to the untreated control) ([6]; Wheat, 60 g ai./ha, after three weeks): 0%
- compatibility with crop plants (wheat), in words ([6]; sodium salt of (I) at 60 g/ha): very good compatibility
- herbicidal effect (%) [7]: 89%
- herbicidal effect (%) [8]: 94%
- herbicidal effect (%) [9]: 67%
- herbicidal effect (%) [10]: 100%
- herbicidal effect (%) [11]: 99%
